Measurements reported in patent publication US7517996B2, “Azole compound” (Ajinomoto Co., Inc., priority 2003, dated 2009).

Experiment: Inhibition of LPA-induced intracellular Ca2+ concentration increase (FLIPR)
Assay type: cell-based
Conditions: LPA final concentration 5 μM; rat hepatic stellate cell derived myofibroblast like clone; Fluo-3, FLIPR
Text: (1) Establishment of Myofibroblast Like Cell Strain Derived from Rat Hepatic Stellate Cell Fraction A stellate cell fraction was obtained from the liver of male Wistar rat according to a conventional method (European J. Biochem., 1993, vol. 213, p. 815). After subculture for several generations, the cell was cloned by limiting dilution. Well grown 24 clones that formed colonies were isolated. These clones were stained with αSMA antibody and confirmed to be all positive and to have Myofibroblast like properties. […] (2) Measurement of Cell Activation (Intracellular Ca^2+ Concentration Increasing Action)-Inhibitory Activity The above-mentioned cells were cultured overnight in a 384 well plate at 24,000 cells/well and the medium was removed. An assay buffer (0.1% BSA, 20 mM HEPES, 1×HBSS, 2.5 mM Probenecid) containing 4 μM of Fluo-3, AM (Biotium) was added, and the cells were stained at 37° C. for 1 hour. Following the buffer containing the dye reagent was removed, and an assay buffer was added, intracellular Ca^2+ concentration was measured with FLIPR (Molecular Devices). Adding a test substance and LPA at the final concentration of 5 μM, the inhibitory action of the test substance on the increase in the intracellular Ca^2+ concentration by LPA was examined. The increase in the intracellular Ca^2+ concentration by LPA addition without test substance was taken as 100%, that without the addition of LPA was taken as 0%, and the substrate's concentration (IC50) at inhibiting increase in the intracellular Ca^2+ concentration by 50% was determined.

Compound	IC50 [nM]
CC(OC(=O)Nc1conc1-c1ccc(CSCCC(=O)O)cc1)c1ccccc1Cl (stereo not drawn) [Compound 2, 3-(4-{4-[1-(2-chlorophenyl)ethoxycarbonylamino]-3-isoxazolyl}benzylsulfanyl)propionic acid]	51
C[C@@H](OC(=O)Nc1conc1-c1ccc(CSCCC(=O)O)cc1)c1ccccc1Cl [Compound 3, 3-(4-{4-[(1R)-1-(2-chlorophenyl)ethoxycarbonylamino]-3-isoxazolyl}benzylsulfanyl)propionic acid]	22
CC(=O)N[C@@H](CSCc1ccc(-c2nocc2NC(=O)OC(C)c2ccccc2Cl)cc1)C(=O)O (stereo partly drawn) [Compound 4, N-acetyl-S-(4-{4-[1-(2-chlorophenyl)ethoxycarbonylamino]-3-isoxazolyl}benzyl)-L-cysteine]	65
CC(OC(=O)Nc1conc1-c1ccc(CSCCS(=O)(=O)O)cc1)c1ccccc1Cl (stereo not drawn) [Compound 5, 2-(4-{4-[1-(2-chlorophenyl)ethoxycarbonylamino]-3-isoxazolyl}benzylsulfanyl)ethanesulfonic acid]	74
C[C@@H](OC(=O)Nc1conc1-c1ccc(CSCCC(=O)O)cc1)c1ccccc1Br [Compound 6, 3-(4-{4-[(1R)-1-(2-bromophenyl)ethoxycarbonylamino]-3-isoxazolyl}benzylsulfanyl)propionic acid]	22
CC(=O)N[C@@H](CSCc1ccc(-c2nocc2NC(=O)O[C@H](C)c2ccccc2Br)cc1)C(=O)O [Compound 7, N-acetyl-S-(4-{4-[(1R)-1-(2-bromophenyl)-ethoxycarbonylamino]-3-isoxazolyl}benzyl)-L-cysteine]	59
CC(OC(=O)Nc1conc1-c1ccc(CSCCC(=O)O)cc1)C1=C(Cl)CCC1 (stereo not drawn) [Compound 8, 3-(4-{4-[1-(2-chloro-1-cyclopentenyl)ethoxycarbonylamino]-3-isoxazolyl}benzylsulfanyl)propionic acid]	29
C[C@@H](OC(=O)Nc1conc1-c1ccc(CSCCC(=O)O)cc1)C1=C(Cl)CCC1 [Compound 9, 3-(4-{4-[(1R)-1-(2-chloro-1-cyclopentenyl)ethoxycarbonyl-amino]-3-isoxazolyl}benzylsulfanyl)propionic acid]	26
CC(OC(=O)Nc1conc1-c1ccc(CSCCC(=O)O)cc1)C1=C(Cl)CCCC1 (stereo not drawn) [Compound 10, 3-(4-{4-[1-(2-chloro-1-cyclohexenyl)ethoxycarbonylamino]-3-isoxazolyl}benzylsulfanyl)propionic acid]	56
CC(OC(=O)Nc1conc1-c1ccc(CS(=O)(=O)CCC(=O)O)cc1)c1ccccc1Cl (stereo not drawn) [Compound 11, 3-(4-{4-[1-(2-chlorophenyl)ethoxycarbonylamino]-3-isoxazolyl}benzylsulfonyl)propionic acid]	115
C[C@@H](OC(=O)Nc1conc1-c1ccc(CS(=O)(=O)CCC(=O)O)cc1)c1ccccc1Br [Compound 12, 3-(4-{4-[(1R)-1-(2-bromophenyl)ethoxycarbonylamino]-3-isoxazolyl}benzylsulfonyl)propionic acid]	68
CC(OC(=O)Nc1conc1-c1ccc(CS(=O)(=O)CCC(=O)O)cc1)C1=C(Cl)CCCC1 (stereo not drawn) [Compound 13, 3-(4-{4-[1-(2-chloro-1-cyclohexenyl)ethoxycarbonylamino]-3-isoxazolyl}benzylsulfonyl)propionic acid]	104
CC(OC(=O)Nc1conc1-c1ccc(CCSCC(=O)O)cc1)c1ccccc1Cl (stereo not drawn) [Compound 14, {[2-(4-{4-[1-(2-chlorophenyl)ethoxycarbonylamino]-3-isoxazolyl}phenyl)ethyl]thio}acetic acid]	146
CC(OC(=O)Nc1conc1-c1ccc(CCSCCC(=O)O)cc1)c1ccccc1Cl (stereo not drawn) [Compound 15, {3-[2-(4-{4-[1-(2-chlorophenyl)ethoxycarbonylamino]-3-isoxazolyl}phenyl)ethyl]thio}propionic acid]	44
CC(OC(=O)Nc1conc1-c1ccc(CCSCC(=O)O)cc1)C1=C(Cl)CCC1 (stereo not drawn) [Compound 16, {[2-(4-{4-[1-(2-chlorocyclopentenyl)ethoxycarbonylamino]-3-isoxazolyl}phenyl)ethyl]thio}acetic acid]	32
CC(OC(=O)Nc1conc1-c1ccc(CCSCC(=O)O)cc1)C1=C(Cl)CCCC1 (stereo not drawn) [Compound 17, {[2-(4-{4-[1-(2-chlorocyclohexenyl)ethoxycarbonylamino]-3-isoxazolyl}phenyl)ethyl]thio}acetic acid]	62
CC(OC(=O)Nc1cnoc1-c1ccc(CSCCC(=O)O)cc1)c1ccccc1Cl (stereo not drawn) [Compound 18, 3-(4-{4-[1-(2-chlorophenyl)ethoxycarbonylamino]-5-isoxazolyl}benzylsulfanyl)propionic acid]	81

Compound	IC50 [nM]
CC(OC(=O)Nc1conc1-c1ccc(CCCCC(=O)O)cc1)c1ccccc1Cl (stereo not drawn) [Compound 19, 5-(4-{4-[1-(2-chlorophenyl)ethoxycarbonylamino]-3-isoxazolyl}phenyl)-4-pentanoic acid]	47
CC(OC(=O)Nc1conc1-c1ccc(COC(=O)NCCC(=O)O)cc1)c1ccccc1Cl (stereo not drawn) [Compound 20, 3-(4-{4-[1-(2-chlorophenyl)ethoxycarbonylamino]-3-isoxazolyl}benzyloxycarbonylamino)propionic acid]	83
CC(OC(=O)Nc1conc1-c1ccc(NC(=O)C[C@@H](O)C(=O)O)cc1)c1ccccc1Cl (stereo partly drawn) [Compound 21, 4-[(4-{4-[1-(2-chlorophenyl)ethoxycarbonylamino]-3-isoxazolyl}phenyl)amino]-(2R)-2-hydroxy-4-oxobutanoic acid]	84
CC(=O)Oc1ccc(-c2nocc2NC(=O)OC(C)c2ccccc2Cl)cc1 (stereo not drawn) [Compound 22, 4-[4-({[1-(2-chlorophenyl)ethoxy]carbonyl}amino)-3-isoxazolyl]phenyl acetate]	140
CC(OC(=O)Nc1conc1-c1ccc(O)cc1)c1ccccc1Cl (stereo not drawn) [Compound 23, 1-(2-chlorophenyl)ethyl 3-(4-hydroxyphenyl)-4-isoxazolylcarbamate]	116
CC(OC(=O)Nc1conc1-c1ccc(OCCCCC(=O)O)cc1)c1ccccc1Cl (stereo not drawn) [Compound 24, 5-(4-{4-[1-(2-chlorophenyl)ethoxycarbonylamino]-3-isoxazolyl}phenoxy)pentanoic acid]	131
CC(OC(=O)Nc1conc1-c1ccc(NC(=O)CCC(=O)O)cc1)c1ccccc1Cl (stereo not drawn) [Compound 25, 4-[(4-{4-[1-(2-chlorophenyl)ethoxycarbonylamino]-3-isoxazolyl}phenyl)amino]-4-oxobutanoic acid]	73
CC(=O)O[C@H](CC(=O)Nc1ccc(-c2nocc2NC(=O)OC(C)c2ccccc2Cl)cc1)C(=O)O (stereo partly drawn) [Compound 26, (2R)-2-acetoxy-4-[(4-{4-[1-(2-chlorophenyl)ethoxy-carbonylamino]-3-isoxazolyl}phenyl)amino]-4-oxobutanoic acid]	141
C[C@@H](OC(=O)Nc1conc1-c1ccc(CCSCC(=O)O)cc1)c1ccccc1Cl [Compound 27, {[2-(4-{4-[(1R)-1-(2-chlorophenyl)ethoxycarbonylamino]-3-isoxazolyl}phenyl)ethyl]thio}acetic acid]	19
C[C@@H](OC(=O)Nc1conc1-c1ccc(CS(=O)(=O)CCC(=O)O)cc1)c1ccccc1Cl [Compound 28, 3-(4-{4-[(1R)-1-(2-chlorophenyl)ethoxycarbonylamino]-3-isoxazolyl}benzylsulfonyl)propionic acid]	36
C[C@@H](OC(=O)Nc1conc1-c1ccc(CCSCCC(=O)O)cc1)c1ccccc1Cl [Compound 29, {3-[2-(4-{4-[(1R)-1-(2-chlorophenyl)ethoxycarbonylamino]-3-isoxazolyl}phenyl)ethyl]thio}propionic acid]	29
C[C@@H](OC(=O)Nc1conc1-c1ccc(/C=C/CCC(=O)O)cc1)c1ccccc1Cl [Compound 30, 5-(4-{4-[(1R)-1-(2-chlorophenyl)ethoxycarbonylamino]-3-isoxazolyl}phenyl)-4-pentenoic acid]	107
C[C@@H](OC(=O)Nc1conc1-c1ccc(CCCCC(=O)O)cc1)c1ccccc1Cl [Compound 31, 5-(4-{4-[(1R)-1-(2-chlorophenyl)ethoxycarbonylamino]-3-isoxazolyl}phenyl)-4-pentanoic acid]	76
C[C@@H](OC(=O)Nc1conc1-c1ccc(CCCCCC(=O)O)cc1)c1ccccc1Cl [Compound 32, 6-(4-{4-[(1R)-1-(2-chlorophenyl)ethoxycarbonylamino]-3-isoxazolyl}phenyl)hexanoic acid]	114
CC(OC(=O)Nc1conc1-c1ccc(CCC(C)(C)CC(=O)O)cc1)c1ccccc1Cl (stereo not drawn) [Compound 33, 5-(4-{4-[1-(2-chlorophenyl)ethoxycarbonylamino]-3-isoxazolyl}phenyl)-3,3-dimethylpentanoic acid]	119
CC(CCCc1ccc(-c2nocc2NC(=O)O[C@H](C)c2ccccc2Cl)cc1)C(=O)O (stereo partly drawn) [Compound 34, 5-(4-{4-[(1R)-1-(2-chlorophenyl)ethoxycarbonylamino]-3-isoxazolyl}phenyl)-2-methylpentanoic acid]	102
